ChEMBL document CHEMBL4304824, “Austalides V and W, new meroterpenoids from the fungus Aspergillus ustus and their antitumor activities” (Bioorg Med Chem Lett, 2019)
Calls of active or inactive are those of the source. No cut-off for these calls is given here.

Columns and labels:
LNCaP [1] = assay: Cytotoxicity against human LNCAP cells assessed as reduction in cell viability incubated for 48 hrs by xCELLigence RTCA analysis; type: functional, cell-based
LNCaP [2] = assay: Cytotoxicity against human LNCAP cells assessed as reduction in cell viability measured after 25 hrs by xCELLigence RTCA analysis; type: functional, cell-based
[3] = target: Proto-oncogene tyrosine-protein kinase Src (Homo sapiens) (UniProt P12931); assay: Inhibition of c-Src phosphorylation at Y419 residue in human LNCAP cells at 50 uM incubated for 48 hrs by chemiluminescence reagent based autoradiography; type: cell-based
Sequence of Proto-oncogene tyrosine-protein kinase Src (Homo sapiens) (P12931 2-536 limits assumed): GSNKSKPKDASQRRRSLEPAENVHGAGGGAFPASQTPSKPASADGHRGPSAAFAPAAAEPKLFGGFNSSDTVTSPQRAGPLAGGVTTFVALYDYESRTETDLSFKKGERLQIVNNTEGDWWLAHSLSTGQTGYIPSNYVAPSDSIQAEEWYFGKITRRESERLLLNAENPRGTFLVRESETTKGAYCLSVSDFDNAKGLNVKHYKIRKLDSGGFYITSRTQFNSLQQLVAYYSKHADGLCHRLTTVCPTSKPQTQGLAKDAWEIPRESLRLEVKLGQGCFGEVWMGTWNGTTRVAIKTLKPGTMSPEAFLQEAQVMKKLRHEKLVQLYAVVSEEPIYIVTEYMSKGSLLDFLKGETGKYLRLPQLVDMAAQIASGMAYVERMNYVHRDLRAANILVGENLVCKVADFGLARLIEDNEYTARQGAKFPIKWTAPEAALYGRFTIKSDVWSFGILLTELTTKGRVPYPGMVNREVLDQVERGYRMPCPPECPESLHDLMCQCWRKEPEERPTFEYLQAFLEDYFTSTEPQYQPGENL

T-24 = assay: Cytotoxicity against human T24 cells assessed as reduction in cell viability incubated for 48 hrs by xCELLigence RTCA analysis; type: functional, cell-based; details: T-24, 48 h
LNCaP [4] = assay: Inhibition of Akt/mTOR pathway in human LNCAP cells assessed as reduction in PRAS40 phosphorylation at T246 residue at 50 uM incubated for 48 hrs by chemiluminescence reagent based autoradiography; type: cell-based
LNCaP [5] = assay: Inhibition of Akt/mTOR pathway in human LNCAP cells assessed as reduction in AKT1 phosphorylation at S473/T308 residues at 50 uM incubated for 48 hrs by chemiluminescence reagent based autoradiography; type: cell-based
LNCaP [6] = assay: Antiproliferation activity against human LNCAP cells assessed as reduction in cell density incubated for 72 hrs by microscopic method; type: functional, cell-based
[7] = target: Focal adhesion kinase 1 (Homo sapiens) (UniProt Q05397); assay: Inhibition of FAK phosphorylation at Y397 residue in human LNCAP cells at 50 uM incubated for 48 hrs by chemiluminescence reagent based autoradiography; type: cell-based
Sequence of Focal adhesion kinase 1 (Homo sapiens) (Q05397 2-1052 limits assumed): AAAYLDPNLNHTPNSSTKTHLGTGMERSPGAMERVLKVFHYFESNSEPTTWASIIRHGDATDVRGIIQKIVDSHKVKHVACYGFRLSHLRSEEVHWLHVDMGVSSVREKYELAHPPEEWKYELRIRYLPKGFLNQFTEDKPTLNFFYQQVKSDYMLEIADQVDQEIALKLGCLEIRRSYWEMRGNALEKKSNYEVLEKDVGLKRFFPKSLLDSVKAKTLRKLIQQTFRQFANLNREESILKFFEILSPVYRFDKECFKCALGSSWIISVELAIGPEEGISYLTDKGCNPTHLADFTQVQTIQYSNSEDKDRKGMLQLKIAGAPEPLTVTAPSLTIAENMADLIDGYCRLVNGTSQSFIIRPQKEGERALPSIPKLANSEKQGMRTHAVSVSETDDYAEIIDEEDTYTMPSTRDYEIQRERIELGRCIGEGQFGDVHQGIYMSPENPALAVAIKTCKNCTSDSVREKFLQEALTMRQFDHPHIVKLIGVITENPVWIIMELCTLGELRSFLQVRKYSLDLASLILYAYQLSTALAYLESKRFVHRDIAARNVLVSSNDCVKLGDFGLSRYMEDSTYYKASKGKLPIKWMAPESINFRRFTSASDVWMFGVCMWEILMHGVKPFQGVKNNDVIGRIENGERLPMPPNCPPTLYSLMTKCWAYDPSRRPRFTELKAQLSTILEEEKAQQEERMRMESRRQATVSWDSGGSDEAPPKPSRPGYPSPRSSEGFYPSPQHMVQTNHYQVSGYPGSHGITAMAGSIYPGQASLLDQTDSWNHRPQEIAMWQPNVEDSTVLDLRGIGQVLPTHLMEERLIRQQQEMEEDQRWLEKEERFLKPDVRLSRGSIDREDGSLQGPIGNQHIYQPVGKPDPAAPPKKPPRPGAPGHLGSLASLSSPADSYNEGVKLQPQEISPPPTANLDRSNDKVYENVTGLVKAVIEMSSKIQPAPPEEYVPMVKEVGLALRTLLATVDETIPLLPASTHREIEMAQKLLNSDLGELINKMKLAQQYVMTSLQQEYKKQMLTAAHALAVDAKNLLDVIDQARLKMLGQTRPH

LNCaP [8] = assay: Inhibition of Akt/mTOR pathway in human LNCAP cells assessed as reduction in AKT3 phosphorylation at S473/T308 residues at 50 uM incubated for 48 hrs by chemiluminescence reagent based autoradiography; type: cell-based
LNCaP [9] = assay: Effect on total HSP60 level in human LNCAP cells at 50 uM incubated for 48 hrs by chemiluminescence reagent based autoradiography; type: ADME, cell-based
LNCaP [10] = assay: Inhibition of Akt/mTOR pathway in human LNCAP cells assessed as reduction in AKT2 phosphorylation at S473/T308 residues at 50 uM incubated for 48 hrs by chemiluminescence reagent based autoradiography; type: cell-based
LNCaP [11] = assay: Inhibition of Akt/mTOR pathway in human LNCAP cells assessed as reduction in p70S6 kinase phosphorylation at T421/S424 residues at 50 uM incubated for 48 hrs by chemiluminescence reagent based autoradiography; type: cell-based
LNCaP [12] = assay: Inhibition of Akt/mTOR pathway in human LNCAP cells assessed as reduction in mTOR phosphorylation at […] residue at 50 uM incubated for 48 hrs by chemiluminescence reagent based autoradiography; type: cell-based
DU-145 = assay: Cytotoxicity against human DU145 cells assessed as reduction in cell viability incubated for 48 hrs by xCELLigence RTCA analysis; type: functional, cell-based; details: DU-145, 48 h
LNCaP [13] = assay: Inhibition of cell migration of human LNCAP cells at 8.8 uM measured every 10 mins for 24 hrs by xCELLigence RTCA analysis; type: functional, cell-based
LNCaP [14] = assay: Inhibition of cell migration of human LNCAP cells at 8.9 uM measured every 10 mins for 24 hrs by xCELLigence RTCA analysis; type: functional, cell-based
LNCaP [15] = assay: Cytotoxicity against human LNCAP cells assessed as reduction in cell viability incubated for 12 hrs by xCELLigence RTCA analysis; type: functional, cell-based

Row | inhibition [3] | inhibition [7] | Compound | IC50 (LNCaP [1]) | inhibition (LNCaP [2]) | IC50 (T-24) | inhibition (LNCaP [4]) | inhibition (LNCaP [5]) | Activity (LNCaP [6]) | inhibition (LNCaP [8]) | Activity (LNCaP [9]) | inhibition (LNCaP [10]) | inhibition (LNCaP [11]) | inhibition (LNCaP [12]) | IC50 (DU-145) | inhibition (LNCaP [13]) | inhibition (LNCaP [14]) | inhibition (LNCaP [15])
1 | Active | Active | COc1c2c(c(C)c3c1C(=O)OC3)O[C@@]1(C)C[C@]3(O)OC[C@]4(C)O[C@@]5(OC)CC[C@](C)([C@H]1C2)[C@]43O5 | 27 µM | Active | 73 µM | Active | Active | Active | Active | Toxic | Active | Active | Active | 73 µM | Active | – | –
2 | – | – | COc1c2c(c(C)c3c1C(=O)OC3)O[C@@]1(C)C[C@]3(O)OC[C@]4(C)O[C@@]5(OC)C[C@@H](OC(C)=O)[C@](C)([C@H]1C2)[C@]43O5 | 20 µM | – | 64 µM | – | – | Active | – | – | – | – | – | 53 µM | – | Active | Dose-dependent effect
